According to the supplement of paper PMC9663587:

Legend:
[1] = compound: CCc1cnn2c(NCc3ccc[n+]([O-])c3)cc(N3CCCC[C@H]3CCO)nc12; experiment: GR value, 72 h; higher = faster growth (1 = untreated, <0 = killing);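 also: breast cancer and non-malignant breast epithelial lines, nine half-log doses, viable cells counted by Hoechst and LIVE/DEAD dye imaging versus time-zero plates and DMSO controls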
[2] = compound: CCOc1cc2ncc(C#N)c(Nc3ccc(OCc4ccccn4)c(Cl)c3)c2cc1NC(=O)/C=C/CN(C)C [Neratinib/HKI272]; experiment: as above
[3] = compound: CN(C)C/C=C/C(=O)Nc1ccc(C(=O)N2CCC[C@@H](Nc3ncc(Cl)c(-c4c[nH]c5ccccc45)n3)C2)cc1 [THZ531]; experiment: as above
[4] = compound: CC(=O)c1c(C)c2cnc(Nc3ccc(N4CCN(CCOCCOCCOCCNC(=O)COc5cccc6c5C(=O)N(C5CCC(=O)NC5=O)C6=O)CC4)cn3)nc2n(C2CCCC2)c1=O [BSJ-03-123]; experiment: as above
[5] = compound: CCN1CCN(Cc2ccc(Nc3ncc(F)c(-c4cc(F)c5nc(C)n(C(C)C)c5c4)n3)nc2)CC1; experiment: as above
[6] = compound: T1, CN1CC[C@H](c2c(O)cc(O)c3c(=O)cc(-c4ccccc4Cl)oc23)[C@H](O)C1 [Flavopiridol]; experiment: as above
[7] = compound: CN(C)C/C=C/C(=O)Nc1ccc(C(=O)Nc2cccc(Nc3ncc(Cl)c(-c4c[nH]c5ccccc45)n3)c2)cc1 [THZ1]; experiment: as above
[8] = compound: C=CC(=O)Nc1ccc(C(=O)Nc2[nH]nc3c2CN(C(=O)N[C@H](CN(C)C)c2ccccc2)C3(C)C)cc1 [YKL-5-124]; experiment: as above
[9] = compound: CC(=O)c1c(C)c2cnc(Nc3ccc(N4CCNCC4)cn3)nc2n(C2CCCC2)c1=O; experiment: as above
[10] = compound: CN(C)C(=O)c1cc2cnc(Nc3ccc(N4CCNCC4)cn3)nc2n1C1CCCC1 [LEE011/Ribociclib]; experiment: as above
[11] = compound: CO[C@@H](C)Cn1c(=O)n(C)c2cnc3ccc(-c4cncc(C(C)(C)O)c4)cc3c21
[12] = compound: Cc1nc(-c2cn3c(n2)-c2ccc(-c4cnn(C(C)(C)C(N)=O)c4)cc2OCC3)n(C(C)C)n1 [Taselisib/GDC0032]
[13] = compound: CN(C)CC[C@H](CSc1ccccc1)Nc1ccc(S(=O)(=O)NC(=O)c2ccc(N3CCN(Cc4ccccc4-c4ccc(Cl)cc4)CC3)cc2)cc1[N+](=O)[O-] [ABT-737]
[14] = compound: CN1CCN(CCOc2cc(OC3CCOCC3)c3c(Nc4c(Cl)ccc5c4OCO5)ncnc3c2)CC1 [Saracatinib/AZD0530]
[15] = compound: T1, Flavopiridol
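For GR50, 72 h in this document: breast cancer and non-malignant breast epithelial cell lines, Deep Dye Drop or Dye Drop imaging, nine half-log doses, GR normalized to time-zero plates and DMSO-only controls.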

Cell Line: MDAMB361
- GR value ([1]; 0.0001 µM): 1.02 GR
- GR value ([1]; 0.0003162 µM): 1.06 GR
- GR value ([1]; 0.001 µM): 0.999 GR
- GR value ([1]; 0.003162 µM): 1.09 GR
- GR value ([1]; 0.01 µM): 0.737 GR
- GR value ([1]; 0.03162 µM): -0.473 GR
- GR value ([1]; 0.1 µM): -0.284 GR
- GR value ([1]; 0.3162 µM): -0.28 GR
- GR value ([1]; 1 µM): -0.282 GR
- GR value ([2]; 0.0003162 µM): 0.976 GR
- GR value ([2]; 0.001 µM): 0.848 GR
- GR value ([2]; 0.003162 µM): 0.824 GR
- GR value ([2]; 0.01 µM): 0.783 GR
- GR value ([2]; 0.03162 µM): 0.639 GR
- GR value ([2]; 0.1 µM): 0.514 GR
- GR value ([2]; 0.3162 µM): 0.486 GR
- GR value ([2]; 1 µM): 0.241 GR
- GR value ([2]; 3.162 µM): -0.516 GR
- GR value ([3]; 0.0001 µM): 0.955 GR
- GR value ([3]; 0.0003162 µM): 0.912 GR
- GR value ([3]; 0.001 µM): 0.758 GR
- GR value ([3]; 0.003162 µM): 0.849 GR
- GR value ([3]; 0.01 µM): 1.06 GR
- GR value ([3]; 0.03162 µM): 0.299 GR
- GR value ([3]; 0.1 µM): -0.82 GR
- GR value ([3]; 0.3162 µM): -0.756 GR
- GR value ([3]; 1 µM): -0.539 GR
- GR value ([4]; 0.001 µM): 1.09 GR
- GR value ([4]; 0.003162 µM): 0.828 GR
- GR value ([4]; 0.01 µM): 0.927 GR
- GR value ([4]; 0.03162 µM): 0.784 GR
- GR value ([4]; 0.1 µM): 0.659 GR
- GR value ([4]; 0.3162 µM): 0.489 GR
- GR value ([4]; 1 µM): 0.32 GR
- GR value ([4]; 3.162 µM): 0.309 GR
- GR value ([4]; 10 µM): -0.0683 GR
- GR value ([5]; 0.001 µM): 0.882 GR
- GR value ([5]; 0.003162 µM): 0.631 GR
- GR value ([5]; 0.01 µM): 0.227 GR
- GR value ([5]; 0.03162 µM): 0.118 GR
- GR value ([5]; 0.1 µM): 0.119 GR
- GR value ([5]; 0.3162 µM): 0.121 GR
- GR value ([5]; 1 µM): 0.0452 GR
- GR value ([5]; 3.162 µM): -0.189 GR
- GR value ([5]; 10 µM): -0.341 GR
- GR value ([6]; 0.0001 µM): 1.05 GR
- GR value ([6]; 0.0003162 µM): 0.905 GR
- GR value ([6]; 0.001 µM): 0.752 GR
- GR value ([6]; 0.003162 µM): 0.73 GR
- GR value ([6]; 0.01 µM): 0.942 GR
- GR value ([6]; 0.03162 µM): 0.753 GR
- GR value ([6]; 0.1 µM): 0.562 GR
- GR value ([6]; 0.3162 µM): -0.0494 GR
- GR value ([6]; 1 µM): -0.402 GR
- GR value ([7]; 0.0001 µM): 0.939 GR
- GR value ([7]; 0.0003162 µM): 0.772 GR
- GR value ([7]; 0.001 µM): 0.986 GR
- GR value ([7]; 0.003162 µM): 0.521 GR
- GR value ([7]; 0.01 µM): 0.463 GR
- GR value ([7]; 0.03162 µM): 0.153 GR
- GR value ([7]; 0.1 µM): -0.511 GR
- GR value ([7]; 0.3162 µM): -0.804 GR
- GR value ([7]; 1 µM): -0.71 GR
- GR value ([8]; 0.001 µM): 0.264 GR
- GR value ([8]; 0.003162 µM): 0.0247 GR
- GR value ([8]; 0.01 µM): -0.0567 GR
- GR value ([8]; 0.03162 µM): -0.0052 GR
- GR value ([8]; 0.1 µM): -0.0751 GR
- GR value ([8]; 0.3162 µM): -0.226 GR
- GR value ([8]; 1 µM): -0.188 GR
- GR value ([8]; 3.162 µM): -0.358 GR
- GR value ([8]; 10 µM): -0.881 GR
- GR value ([9]; 0.0003162 µM): 0.963 GR
- GR value ([9]; 0.001 µM): 1.12 GR
- GR value ([9]; 0.003162 µM): 0.976 GR
- GR value ([9]; 0.01 µM): 0.78 GR
- GR value ([9]; 0.03162 µM): 0.319 GR
- GR value ([9]; 0.1 µM): 0.172 GR
- GR value ([9]; 0.3162 µM): 0.0854 GR
- GR value ([9]; 1 µM): 0.151 GR
- GR value ([9]; 3.162 µM): 0.184 GR
- GR value ([10]; 0.001 µM): 0.49 GR
- GR value ([10]; 0.003162 µM): 0.396 GR
- GR value ([10]; 0.01 µM): 0.306 GR
- GR value ([10]; 0.03162 µM): 0.435 GR
- GR value ([10]; 0.1 µM): 0.287 GR
- GR value ([10]; 0.3162 µM): 0.0812 GR
- GR value ([10]; 1 µM): 0.176 GR
- GR value ([10]; 3.162 µM): -0.0126 GR
- GR value ([10]; 10 µM): 0.2 GR
- GR50, 72 h [11]: < 0.001 µM
- GR50, 72 h [12]: 0.00177 µM
- GR50, 72 h [13]: > 10 µM
- GR50, 72 h [14]: 0.426 µM
- GR50, 72 h [15]: 0.0887 µM
